The values that follow come from PMC12406734, “B3GALT6 mutations lead to compromised connective tissue biomechanics in Ehlers-Danlos syndrome” (JCI Insight, 2025).

For this assay, the target named is T1, GlcAT-I (GST-GlcAT-I) (Homo sapiens, UniProt O94766).
T1 construct: gene B3GAT3; truncated GlcAT-I, GST fusion, E. coli, purified
T1 sequence (O94766 29-335 limits assumed): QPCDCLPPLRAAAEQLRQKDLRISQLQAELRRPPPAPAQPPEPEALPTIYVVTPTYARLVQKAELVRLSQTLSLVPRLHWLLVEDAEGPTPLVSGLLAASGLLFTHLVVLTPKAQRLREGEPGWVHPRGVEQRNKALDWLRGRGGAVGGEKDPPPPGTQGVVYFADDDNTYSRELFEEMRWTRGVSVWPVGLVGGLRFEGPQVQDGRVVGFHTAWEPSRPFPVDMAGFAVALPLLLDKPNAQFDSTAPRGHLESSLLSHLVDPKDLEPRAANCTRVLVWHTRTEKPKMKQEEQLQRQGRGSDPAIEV
Description: UDP-Glo glycosyltransferase assay. The following applies: acceptor; 5 mM UDP-GlcA, 100 mM sodium acetate pH 6.5, 10 mM MnCl2, 37 °C, 60 min. In kind it is biochemical.

Consider `COc1ccc2ccc(O[C@@H]3OC[C@@H](O[C@@H]4O[C@H](CO)[C@H](O)[C@H](O[C@@H]5O[C@H](CO)[C@H](O)[C@H](O)[C@H]5O)[C@H]4O)[C@H](O)[C@H]3O)cc2c1` [Gal-Gal-Xyl-OMN], for which the UDP-Glo glycosyltransferase assay result is on record as “GlcAT-I was highly active towards the trisaccharide Gal-Gal-Xyl-OMN”.
